According to patent US11400063B2, “Early administration of low-dose colchicine after myocardial infarction” (INSTITUT DE CARDIOLOGIE DE MONTREAL, priority 2019, dated 2022):

How the values were obtained:
[1] = test system: high-sensitivity C-reactive protein level and white-cell count; assay: COLCOT biomarkers of inflammation; type: in vivo, human; details: for Hs-C reactive protein, geometric mean: N = 99; for Total white blood cell count, geometric mean: N = 992
Source text: Additional prespecified exploratory end points included the change from baseline to 6 months in the high-sensitivity C-reactive protein level and the change from baseline to 12 months in the white-cell count. The C-reactive protein biomarker substudy was implemented after a protocol amendment and was optional for sites and for patients; 34 sites chose to participate in this substudy.
The analysis of the primary end point was repeated in the per-protocol population (i.e., patients without major protocol deviations). Secondary and exploratory end points expressed as time to event were analyzed similarly. The changes from baseline to follow-up were analyzed with the use of an analysis of covariance model with adjustment for baseline value, and estimates of treatment effect are presented with 95% confidence intervals.
High-sensitivity C-reactive protein was measured in a subgroup of only 207 patients at the time of randomization and 6 months later, and the median concentration at trial entry was 4.28 mg per liter. […] The adjusted geometric mean percent changes in the high-sensitivity C-reactive protein level at 6 months after myocardial infarction were −70.0% in the colchicine group and −66.6% in the placebo group, and the placebo-adjusted geometric mean percent change was −10.1% percentage points in the colchicine group (95% CI, −28.6 to 13.4) (Table 17).
In Table 17, the placebo-adjusted geometric mean percent change was obtained by exponentiating the adjusted mean difference between groups from the analysis of covariance model (based on log-transformed data), then subtracting 1 and multiplying by 100.
In addition, the C-reactive protein biomarker sub-study was implemented following a protocol amendment and was optional for sites and for patients; 34 sites accepted to participate in this substudy. There were 213 and 208 patients who provided blood samples at baseline and 6 months, respectively. Paired baseline and 6-month hs-CRP values were available in 207 patients. Clinically available white blood cell counts were obtained from 2598 patients at baseline and 1998 patients at 12 months, and paired baseline and 12-month values were available in 1972 patients. Statistical analysis was conducted on the patients who provided both baseline and follow-up data and as these were exploratory analyses, no missing data was imputed.

[2] = test system: patients with stable coronary disease; details: cited from earlier work
[3] = baseline to 12 months, listed as colchicine
[4] = LoDoCo, colchicine vs control (no colchicine)

SMILES: COc1cc2c(c(OC)c1OC)-c1ccc(OC)c(=O)cc1[C@@H](NC(C)=O)CC2 [Colchicine, colchicine]
- Hs-C reactive protein, geometric mean ([1]; 6 months): 1.37 mg/L
- Circulating lymphocytes, geometric mean ([1]; 12 months): 1.83 10^3/μL
- Circulating neutrophils, geometric mean ([1]; 12 months): 3.95 10^3/μL
- Total white blood cell count, geometric mean ([1]; 12 months): 6.95 10^3/μL
- Circulating lymphocytes, geometric mean ([1]; Randomization): 1.79 10^3/μL
- Circulating neutrophils, geometric mean ([1]; Randomization): 5.45 10^3/μL
- Hs-C reactive protein, geometric mean ([1]; Randomization): 4.27 mg/L
- Total white blood cell count, geometric mean ([1]; Randomization): 8.54 10^3/μL
- Hs-C reactive protein, Adjusted GM percent change ([1]; baseline to 6 months): −70.0%
- Hs-C reactive protein, Placebo-adjusted GM percent change ([1]; baseline to 6 months): −10.1%
- Circulating lymphocytes, Placebo-adjusted GM percent change ([1]; baseline to 12 months): 1.10%
- Circulating neutrophils, Adjusted GM percent change ([1]; baseline to 12 months): −27.63%
- Circulating neutrophils, Placebo-adjusted GM percent change ([1]; baseline to 12 months): 0.45%
- Total white blood cell count, Adjusted GM percent change ([1]; baseline to 12 months): −18.81%
- Total white blood cell count, Placebo-adjusted GM percent change ([1]; baseline to 12 months): 0.26%
- Total white blood cell count, Adjusted GM percent change [1, 3]: −18.8%
- Total white blood cell count, Placebo-adjusted GM percent change [1, 3]: 0.3%
- reduction in the C-reactive protein level ([1]; over the first 6 months after myocardial infarction, both trial groups): > 65%
- Myocardial infarction, Events N ([2]; LoDoCo, N = 250, median follow-up 24 months): 4 N
- Ischemic stroke, HR (95% CI) [2, 4]: 0.23 (0.03-2.03)
- Myocardial infarction, HR (95% CI) [2, 4]: 0.25 (0.08-0.76)
- Ischemic stroke, Events % ([2]; LoDoCo): 0.4%
- Ischemic stroke, Events N ([2]; LoDoCo): 1 N
- Myocardial infarction, Events % ([2]; LoDoCo): 1.6%
- cardiovascular events vs those not receiving colchicine ([2]; colchicine 0.5 mg once daily, 532 patients, not placebo-controlled): fewer cardiovascular events
